Values of other authors in patent US8178083B2, “Treatment of optic neuritis” (Ares Trading, S.A., priority 2005, dated 2012).

Test system: patients with acute isolated unilateral optic neuritis

Compound: C[C@]12C=CC(=O)C=C1CC[C@@H]1[C@@H]2C(=O)C[C@@]2(C)[C@H]1CC[C@]2(O)C(=O)CO [prednisone]
- risk of a new optic neuritis attack in the fellow eye versus placebo-treated group (oral prednisone 1 mg/kg per day for 14 days): more than double
- patients who developed new bouts of optic neuritis (in either the affected or fellow eye) (within 2 years of follow-up): 30%
